Values quoted from earlier work in US20240277651A1, “MIXED GLYCEROL ESTER COMPOSITION” (priority 2021, published 2024).

Tested on: pathogenic, gram-positive bacteria
Conditions: Skrivanova et al, Veterinarni Medicina, 51, 2006

## CCCCCCCCCCCC(=O)OCC(O)CO (stereo not shown) [monolaurin]
  Inhibitory action on pathogenic, gram-positive bacteria: inhibitory action
